Series [1] concerns the target T1, human mGluR5a receptor (Homo sapiens, UniProt P41594).
T1 construct: cDNA subcloned into pcDNA3.1(-)
The experiment in a line: Cell-based functional Ca2+ mobilization assay (FDSS), potentiation of glutamate EC20 response. The following applies: for EC50: HEK cells transfected with human mGluR5 (H10H or H12H), in presence of EC20 glutamate; for Emax: maximum % effect in concentration-response curve, as percent of response to maximally effective glutamate. In a few lines: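 HEK293A cells stably expressing human mGluR5a (H10H or H12H clones), plated overnight in glutamate-glutamine-free medium, loaded with Ca2+-sensitive dye (e.g. Fluo-4) and read on FDSS.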

Results on 47 molecules are retold here after patent US8592422B2, “Bicyclic triazole and pyrazole lactams as allosteric modulators of mGluR5 receptors” (Vanderbilt University, priority 2010, dated 2013).

Where two headings read alike, the source gives them in different places. Where only a bound is given, the exact number is not on record here.

T1 sequence (P41594 21-1180 isoform P41594-2 limits assumed): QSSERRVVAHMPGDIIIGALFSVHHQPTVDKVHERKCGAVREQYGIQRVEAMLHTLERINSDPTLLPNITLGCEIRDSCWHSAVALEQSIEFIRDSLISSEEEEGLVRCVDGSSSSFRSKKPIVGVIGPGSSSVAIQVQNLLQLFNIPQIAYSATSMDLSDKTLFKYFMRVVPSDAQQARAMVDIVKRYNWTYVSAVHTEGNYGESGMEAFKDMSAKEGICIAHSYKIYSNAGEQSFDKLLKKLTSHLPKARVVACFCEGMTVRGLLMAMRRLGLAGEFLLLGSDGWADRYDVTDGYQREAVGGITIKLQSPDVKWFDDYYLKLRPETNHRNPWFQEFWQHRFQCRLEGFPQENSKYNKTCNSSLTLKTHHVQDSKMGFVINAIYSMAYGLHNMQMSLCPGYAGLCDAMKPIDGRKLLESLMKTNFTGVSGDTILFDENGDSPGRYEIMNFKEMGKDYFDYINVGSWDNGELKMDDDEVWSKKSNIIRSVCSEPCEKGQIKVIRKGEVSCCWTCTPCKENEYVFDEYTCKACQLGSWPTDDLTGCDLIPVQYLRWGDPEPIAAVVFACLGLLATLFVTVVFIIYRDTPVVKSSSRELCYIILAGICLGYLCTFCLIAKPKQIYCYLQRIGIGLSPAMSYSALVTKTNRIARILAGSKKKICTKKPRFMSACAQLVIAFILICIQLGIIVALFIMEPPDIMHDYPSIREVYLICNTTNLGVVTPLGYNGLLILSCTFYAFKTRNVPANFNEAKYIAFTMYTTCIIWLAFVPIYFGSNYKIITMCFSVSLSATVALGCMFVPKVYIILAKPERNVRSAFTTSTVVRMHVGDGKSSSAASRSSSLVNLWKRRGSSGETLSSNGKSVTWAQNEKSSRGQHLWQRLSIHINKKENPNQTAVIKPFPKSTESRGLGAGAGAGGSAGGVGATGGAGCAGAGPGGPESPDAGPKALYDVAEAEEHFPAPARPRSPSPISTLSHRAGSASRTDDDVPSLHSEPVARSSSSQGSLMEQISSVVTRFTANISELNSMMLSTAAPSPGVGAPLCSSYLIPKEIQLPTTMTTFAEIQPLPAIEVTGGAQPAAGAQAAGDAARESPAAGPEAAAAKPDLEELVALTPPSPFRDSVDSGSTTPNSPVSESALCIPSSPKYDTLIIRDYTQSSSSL

`CC1CN(c2cccc(F)c2)C(=O)c2cc(COc3ccc(F)cc3)nn21` (racemic) [Example 235] had a melting point of 128.1 °C. In addition, in series [1] (read-out: EC50), the EC50 was determined as 170 nM. In addition, the Emax in series [1] worked out at 64%.

In the case of `Cc1nc(N2CC(C)n3nc(COc4ccc(F)cc4)cc3C2=O)ccc1F` (racemic) [Example 236], the melting point was 123.5 °C. Also, the EC50 in series [1] (read-out: EC50) amounted to 151 nM. Also, in series [1], the Emax came out at 64%.

On to `O=C1c2cc(COc3ccccc3)nn2CCN1c1ccc(F)c(F)c1` [Example 7], for which the melting point was over 300 °C. Also, in series [1] (read-out: EC50), the EC50 was determined as 98 nM. The maximal response (Emax) in series [1] came out at 80%.

Turning to `O=C1c2cc(COc3ccccc3)nn2CCN1c1cccc(F)c1` [Example 8], the melting point amounted to 155 °C. For the same molecule, in series [1] (EC50 (nM)), the EC50 is 132 nM. Also, in series [1], the maximal response (Emax) came to 81%.

Regarding `O=C1c2cc(COc3ccccc3)nn2CCN1c1ccccc1F` [Example 9], the melting point stood at 154.7 °C. In series [1] (EC50 (nM)), the EC50 worked out at 162 nM. In addition, the Emax in series [1] was found to be 82%.

For `Cc1cccc(N2CCn3nc(COc4ccccc4)cc3C2=O)n1` [Example 10], the melting point amounted to 129.7 °C. Moreover, in series [1] (read-out: EC50), the EC50 came out at 162 nM. For the same molecule, the Emax in series [1] was found to be 84%.

As for `O=C1c2cc(COc3ccccc3)nn2CCN1c1ccncc1` [Example 14], the melting point came to 271.3 °C. For the same molecule, the EC50 in series [1] (read-out: EC50) was 1480 nM. In addition, the Emax in series [1] came to 72%.

In the case of `Cc1ccnc(N2CCn3nc(COc4ccccc4)cc3C2=O)c1` [Example 17], the melting point is 131.3 °C. The EC50 in series [1] (read-out: EC50) amounted to 490 nM. Besides, the maximal response (Emax) in series [1] was 72%.

`Cc1cncc(N2CCn3nc(COc4ccccc4)cc3C2=O)c1` [Example 22]: the melting point turned out to be 155.3 °C. Moreover, the EC50 in series [1] (read-out: EC50) amounted to 1200 nM. The maximal response (Emax) in series [1] turned out to be 74%.

For `Cc1ccc(N2CCn3nc(COc4ccccc4)cc3C2=O)cn1` [Example 23], the melting point was over 300 °C. Moreover, in series [1] (read-out: EC50), the EC50 turned out to be 1200 nM. Besides, the Emax in series [1] was found to be 81%.

In turn, `O=C1c2cc(COc3ccccc3)nn2CCN1CC(F)(F)F` [Example 24] yielded a melting point of 132.1 °C. In series [1] (read-out: EC50), the EC50 turned out to be 2820 nM. Also, the EC50 in series [1] (read-out: pEC50 (converted)) is 1660 nM. The maximum response (Emax) in series [1] turned out to be 78%.

The molecule `CC(C)N1CCn2nc(COc3ccccc3)cc2C1=O` [Example 25] gave a melting point of over 300 °C. In addition, the EC50 in series [1] (read-out: EC50) is 1860 nM. The Emax in series [1] is 53%.

On to `O=C1c2cc(COc3ccccc3)nn2CCN1CC1CCC1` [Example 27], for which the melting point was over 300 °C. Besides, the EC50 in series [1] (read-out: EC50) amounted to 92 nM. Also, in series [1], the maximal response (Emax) stood at 80%.

Molecule `O=C1c2cc(COc3ccccc3)nn2CCN1CC1CC1(F)F` (stereo not shown) [Example 28] showed a melting point of 180.2 °C. Besides, the EC50 in series [1] (read-out: EC50) is 174 nM. Besides, the maximal response (Emax) in series [1] amounted to 60%.

For `O=C1c2cc(COc3ccccc3)nn2CCN1c1cncnc1` [Example 31], the melting point was found to be 240 °C. In addition, the EC50 in series [1] (read-out: EC50) was over 10000 nM. Moreover, the maximal response (Emax) in series [1] is 58%.

`Cc1ncc(N2CCn3nc(COc4ccccc4)cc3C2=O)cn1` [Example 33] had a melting point of 283.4 °C. For the same molecule, the EC50 in series [1] (read-out: EC50) is over 10000 nM. Besides, the maximum response (Emax) in series [1] is 67%.

`COc1ccccc1N1CCn2nc(COc3ccccc3)cc2C1=O` [Example 47]: the melting point was 145.8 °C. Moreover, the EC50 in series [1] (read-out: EC50) was 93 nM. Moreover, the Emax in series [1] came out at 65%.

Molecule `CCOc1cccc(N2CCn3nc(COc4ccccc4)cc3C2=O)c1` [Example 59] had a melting point of 115.8 °C. In addition, the EC50 in series [1] (read-out: EC50) was found to be 130 nM. Moreover, the Emax in series [1] turned out to be 57%.

With `CC(C)CCc1cccc(N2CCn3nc(COc4ccccc4)cc3C2=O)n1` [Example 65], the melting point was 76.7 °C. Moreover, the EC50 in series [1] (read-out: EC50) was determined as 363 nM. Also, the maximal effect (Emax) in series [1] was determined as 74%.

Regarding `O=C1c2cc(COc3ccccc3)nn2CCN1c1ncccc1Cl` [Example 68], the melting point turned out to be 127.5 °C. The EC50 in series [1] (read-out: EC50) came to 324 nM. Moreover, the Emax in series [1] stood at 68%.

For the molecule `Cc1cc(N2CCn3nc(COc4ccccc4)cc3C2=O)ncc1F` [Example 72], the melting point came out at 134.7 °C. Further, the EC50 in series [1] (read-out: EC50) was determined as 91 nM. The Emax in series [1] was determined as 72%.

In turn, `O=C1c2cc(COc3ccccc3)nn2CCN1c1cccc(CF)n1` [Example 76] gave a melting point of 111.3 °C. For the same molecule, the EC50 in series [1] (read-out: EC50) was 66 nM. Further, the maximum response (Emax) in series [1] worked out at 69%.

Molecule `COc1ccnc(N2CCn3nc(COc4ccccc4)cc3C2=O)n1` [Example 78] displayed a melting point of 144.5 °C. For the same molecule, in series [1] (read-out: EC50), the EC50 was 490 nM. In addition, the maximal effect (Emax) in series [1] amounted to 69%.

The molecule `O=C1c2cc(COc3ccccc3)nn2CCN1c1ccncn1` [Example 80] had a melting point of 148.9 °C. In series [1] (read-out: EC50), the EC50 was found to be 1290 nM. Besides, the maximal response (Emax) in series [1] was 71%.

Turning to `Cc1cc(N2CCn3nc(COc4ccccc4)cc3C2=O)ncn1` [Example 83], the melting point amounted to 143.7 °C. In series [1] (read-out: EC50), the EC50 came out at 891 nM. In addition, in series [1], the Emax came out at 65%.

Molecule `Cc1ccc(N2CCn3nc(COc4ccccc4)cc3C2=O)nn1` [Example 84] gave a melting point of 166.7 °C. For the same molecule, in series [1] (read-out: EC50), the EC50 is over 10000 nM. Moreover, the maximum response (Emax) in series [1] was found to be 53%.

Consider `O=C1c2cc(COc3ccccc3)nn2CCN1c1cnccn1` [Example 87], for which the melting point worked out at 239.3 °C. The EC50 in series [1] (read-out: EC50) was determined as 813 nM. Moreover, the Emax in series [1] was found to be 56%.

As to `Cc1nc(N2CCn3nc(COc4ccccc4)cc3C2=O)ncc1F` [Example 90], the melting point worked out at 177.1 °C. Moreover, the EC50 in series [1] (read-out: EC50) is 575 nM. Also, the Emax in series [1] came to 67%.

Molecule `COc1cc(C)nc(N2CCn3nc(COc4ccccc4)cc3C2=O)n1` [Example 99] had a melting point of 183.7 °C. Further, the EC50 in series [1] (read-out: EC50) amounted to 646 nM. For the same molecule, the maximal response (Emax) in series [1] stood at 67%.

For the molecule `Cc1cnc(N2CCn3nc(COc4ccccc4)cc3C2=O)cn1` [Example 100], the melting point turned out to be 235.5 °C. Also, the EC50 in series [1] (read-out: EC50) amounted to 955 nM. For the same molecule, the Emax in series [1] worked out at 67%.

The molecule `COc1nc(N2CCn3nc(COc4ccccc4)cc3C2=O)cnc1C` [Example 102] came in with a melting point of 158.1 °C. Moreover, in series [1] (read-out: EC50), the EC50 was 120 nM. Besides, the maximal response (Emax) in series [1] was found to be 69%.

Molecule `COc1cc(C)cc(N2CCn3nc(COc4ccccc4)cc3C2=O)n1` [Example 104] had a melting point of 140.9 °C. Further, in series [1] (read-out: EC50), the EC50 was found to be 54 nM. In addition, the Emax in series [1] worked out at 67%.

The molecule `COc1cc(N2CCn3nc(COc4ccccc4)cc3C2=O)nc(C)n1` [Example 105] displayed a melting point of 131.9 °C. Further, the EC50 in series [1] (read-out: EC50) turned out to be 219 nM. Further, in series [1], the maximal effect (Emax) worked out at 53%.

Take `COc1cnc(N2CCn3nc(COc4ccccc4)cc3C2=O)nc1OC` [Example 107]: the melting point amounted to 169.6 °C. The EC50 in series [1] (read-out: EC50) was 347 nM. In addition, the maximum response (Emax) in series [1] worked out at 63%.

`COc1nc(N2CCn3nc(COc4ccccc4)cc3C2=O)ccc1C` [Example 108] yielded a melting point of 145.3 °C. In addition, the EC50 in series [1] (read-out: pEC50 (converted)) is 17.8 nM. For the same molecule, in series [1], the Emax stood at 64%.

In turn, `CC(C)c1cccc(N2CCn3nc(COc4ccccc4)cc3C2=O)n1` [Example 111] came in with a melting point of 101.8 °C. In addition, the EC50 in series [1] (read-out: EC50) was determined as 93 nM. Besides, the Emax in series [1] was found to be 68%.

As for `COc1ccc(N2CCn3nc(COc4ccccc4)cc3C2=O)c(C)n1` [Example 114], the melting point amounted to 136.3 °C. In addition, the EC50 in series [1] (read-out: EC50) was 100 nM. In addition, the maximum response (Emax) in series [1] is 68%.

Regarding `Cc1ccc(N2CCn3nc(COc4ccccc4)cc3C2=O)c(C)n1` [Example 116], the melting point is over 300 °C. In addition, in series [1] (read-out: EC50), the EC50 came out at 310 nM. Besides, the Emax in series [1] was found to be 62%.

Turning to `Cc1cnc(C)c(N2CCn3nc(COc4ccccc4)cc3C2=O)n1` [Example 120], the melting point was found to be 141.7 °C. Besides, in series [1] (read-out: EC50), the EC50 was 750 nM. The Emax in series [1] came out at 67%.

Molecule `O=C1c2cc(COc3ccccc3)nn2CCN1c1ncc(F)cn1` [Example 126] returned a melting point of 161.3 °C. For the same molecule, the EC50 in series [1] (EC50 (nM)) turned out to be 780 nM. Besides, the Emax in series [1] came to 71%.

In turn, `Cc1nc(N2CC(C)n3nc(COc4ccccc4)cc3C2=O)ccc1F` (stereo not shown) [Example 134] registered a melting point of 87.4 °C. Further, the EC50 in series [1] (read-out: EC50) worked out at 63 nM. The maximal response (Emax) in series [1] is 70%.

The molecule `C[C@@H]1Cn2nc(COc3ccccc3)cc2C(=O)N1CC1CC1` [Example 137] came in with a melting point of 64.6 °C. Besides, the EC50 in series [1] (read-out: EC50) came out at 240 nM. For the same molecule, the maximal effect (Emax) in series [1] was determined as 66%.

`Cc1nc(N2C(=O)c3cc(COc4ccccc4)nn3C[C@@H]2C)ccc1F` [Example 138] yielded a melting point of 93.3 °C. Besides, the EC50 in series [1] (read-out: EC50) was 316 nM. Besides, the Emax in series [1] was found to be 59%.

Take `Cc1nc(N2C(=O)c3cc(COc4ccccc4)nn3C[C@H]2C)ccc1F` [Example 140]: the melting point amounted to 156 °C. Besides, in series [1] (read-out: EC50), the EC50 was 170 nM. In series [1], the maximum response (Emax) came to 68%.

Take `C[C@@H]1Cn2nc(COc3ccccc3)cc2C(=O)N1c1ccc(F)cn1` [Example 141]: the melting point amounted to 71.9 °C. Moreover, in series [1] (read-out: EC50), the EC50 came to 195 nM. Moreover, the Emax in series [1] stood at 66%.

Turning to `COc1cc(N2C(=O)c3cc(COc4ccccc4)nn3C[C@H]2C)ccc1F` [Example 143], the melting point stood at 135.8 °C. Moreover, the EC50 in series [1] (read-out: EC50) came out at 81 nM. Besides, the Emax in series [1] amounted to 62%.

`Cc1cc(N2C(=O)c3cc(COc4ccccc4)nn3C[C@H]2C)ccc1F` [Example 144]: the melting point amounted to 94.6 °C. In series [1] (read-out: pEC50 (converted)), the EC50 was 32.4 nM. Further, the maximal effect (Emax) in series [1] amounted to 70%.
